Assay [1] addresses T1, human α10 nAChRs (Homo sapiens, UniProt Q9GZZ6). In kind it is cell-based. Set-up: expressed in transfected cells.
The target of assay [2] is T1, human α10 nAChRs. Put plainly: cell-based. In kind it is cell-based. Set-up: expressed in transfected cells. To be noted: for ACh response in presence of ligand, of control values: oocytes incubated with BRU (20 μM).
Assay [3] deals with T1, human α10 nAChRs. Put plainly: Decay of ACh-evoked currents of ligand-incubated oocytes during saline perfusion (one-phase exponential plateau). To be noted: oocytes treated 3 days with 20 μM ligand; ACh 1 mM; calculated plateau, 95% CI in parentheses.
The target in assay [4] is T1, human α10 nAChRs. Kind of assay: Agonist activation of α10 nAChRs, concentration-response in oocytes. Also on record: Emax: dose or concentration left out as unconfirmed.
Experimental: For the assessment of ligand activity, the oocyte membranes were clamped at a holding potential of −70 mV and continuously perfused with saline (control solution). […] Ligands were applied in this manner for concentrations up to 1 µM.
In assay [5] the target is human α9 nAChRs (Homo sapiens, UniProt Q9UGM1).
Assay [6] concerns the target T2, human α9α10 nAChRs (Homo sapiens, UniProt Q9GZZ6+Q9UGM1).
T2 construct: expressed in transfected cells; host or cells: Xenopus laevis oocytes co-injected with α9 and α10 cRNAs (1:1)
Put plainly: cell-based.

Assay [7] has as its system X. laevis oocytes injected with water.
For assay [8], the target named is T1, human α10 nAChRs. The following applies: ACh 1 mM.
Experimental: For the assessment of ligand activity, the oocyte membranes were clamped at a holding potential of −70 mV and continuously perfused with saline (control solution). […] Ligands were applied in this manner for concentrations up to 1 µM. […] For experiments examining the desensitization kinetics of α10-containing nAChRs, sibling oocytes were injected with 25 ng of cRNA for α10 subunits or cRNA for α9 and α10 subunits (25 ng each). Actinomycin-D (1 µM) was also used in some experiments to prevent RNA transcription and inhibit the expression of endogenous chloride channels. The oocytes were incubated in actinomycin-D for 36 h prior to assessment with TEVC electrophysiology.
Assay [9] has as its target T2, human α9α10 nAChRs. Put plainly: Desensitization to 15 s pulse of ACh in calcium or barium saline. Type of assay: cell-based. The following applies: for peak current amplitude in response to ACh: 15 s pulse of EC50 ACh, oocytes incubated in saline only. The text has this: (§1) Similar to the results presented in Figure 2, peak ACh-evoked currents from α10 nAChRs were reduced in the presence of barium compared to calcium (Figures 10A,B). […] By contrast with α10 nAChRs, α9α10 currents were much smaller in the presence of barium compared to calcium (Figures 10C,D). Furthermore, α9α10 nAChRs desensitized more slowly than α10 nAChRs.

Assay [10] has as its target T1, human α10 nAChRs. The assay is described as above. In kind it is cell-based. Also on record: expressed in transfected cells. To be noted: for peak current amplitude in response to ACh: 15 s pulse of EC50 ACh, oocytes incubated in STR (20 μM).
From the text: as §1

Where [11] appears, read: oocytes treated 3 days with 20 μM ligand, ACh 1 mM.
Setting [12] is: read-out: inhibition of ACh-evoked responses.

The values that follow come from publication PMC9523446 (Frontiers in Pharmacology, 2022).

“And” between values parts separate entries of the source, which are not always exact repeats. Identical values can stand only once. “Also recorded” adds a separate entry of the source. Counter-ions that a name gives are not always drawn. Like-named read-outs stand apart in the source and are kept apart here. Starred links: 1 amine or outer side, 2 acyl side, 3 side chain; linkers in the order of their positions; H or OH if unused. Positions of bridges follow the written chain, without caps; N, C: chain ends. Non-standard residues stand in square brackets, D forms with d. Residues, ends and D or L forms follow the SMILES beside them. Chains are numbered I, II in the order given. Actinocin(9to1) = Cc1c2oc3c(C)ccc(C(=O)[*:1])c3nc-2c(C(=O)[*:2])c(N)c1=O; NMeV = CN[C@H](C(=O)O)C(C)C; Sar = CNCC(=O)O

T2 sequence (Q9UGM1 26-479 limits assumed): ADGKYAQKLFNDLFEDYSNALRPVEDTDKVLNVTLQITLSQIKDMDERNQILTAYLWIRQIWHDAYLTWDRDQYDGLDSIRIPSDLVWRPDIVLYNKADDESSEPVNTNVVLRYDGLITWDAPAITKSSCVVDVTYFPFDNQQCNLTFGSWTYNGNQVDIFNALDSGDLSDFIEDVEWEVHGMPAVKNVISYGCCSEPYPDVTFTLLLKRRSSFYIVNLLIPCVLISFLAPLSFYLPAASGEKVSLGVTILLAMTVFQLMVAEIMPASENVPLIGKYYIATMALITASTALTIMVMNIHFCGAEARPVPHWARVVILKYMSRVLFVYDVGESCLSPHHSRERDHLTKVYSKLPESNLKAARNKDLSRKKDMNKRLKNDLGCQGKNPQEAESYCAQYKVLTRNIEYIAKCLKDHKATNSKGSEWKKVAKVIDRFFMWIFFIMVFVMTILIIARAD
T2 sequence (Q9GZZ6 25-450): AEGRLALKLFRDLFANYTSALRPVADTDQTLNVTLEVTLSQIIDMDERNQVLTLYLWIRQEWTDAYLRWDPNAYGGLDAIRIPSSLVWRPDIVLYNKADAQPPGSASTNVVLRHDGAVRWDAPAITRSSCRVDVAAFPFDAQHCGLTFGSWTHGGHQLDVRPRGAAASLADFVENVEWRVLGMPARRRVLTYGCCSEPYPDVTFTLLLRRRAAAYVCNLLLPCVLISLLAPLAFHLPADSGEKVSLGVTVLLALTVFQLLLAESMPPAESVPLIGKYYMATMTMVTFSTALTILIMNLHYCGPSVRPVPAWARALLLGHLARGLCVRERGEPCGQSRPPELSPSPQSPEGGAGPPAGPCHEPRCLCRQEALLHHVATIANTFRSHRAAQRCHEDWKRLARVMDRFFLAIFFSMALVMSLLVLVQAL
T1 sequence (Q9GZZ6 25-450): as above
Sequence of human α9 nAChRs (Q9UGM1 26-479 limits assumed): as the sequence (Q9UGM1 26-479 limits assumed) above

`COc1cc2c(cc1OC)[C@@]13CCN4CC5=CCO[C@H]6CC(=O)N2[C@H]1[C@H]6[C@H]5C[C@H]43` [BRU, dimethoxystrychnine sulfate hydrate]: in assay [1] (setting [11]), the “range of ACh-evoked current amplitudes” value is reported as −50 to −888 nA. For the same compound, in [1] (oocytes treated 3 days with 20 μM ligand, ACh 1 mM, ± SD), the ACh-evoked current amplitude is −302 ± 225 nA. Besides, the “ACh response in presence of ligand, of control values” in [2] (ligand 100 nM perfused) is recorded as 87 ± 16%; in assay [2] (ligand 1 μM (2nd of series 100 nM through 300 μM)), 246 ± 74%; in assay [2] (ligand 10 μM (3rd of series 100 nM through 300 μM)) it was 371 ± 101%; in [2] (ligand 100 μM (4th of series 100 nM through 300 μM)), 260 ± 102%; in [2] (ligand 300 μM perfused), 168 ± 73%. Moreover, the “plateau to which ACh-evoked currents decay, of initial current amplitudes” value in [3] was 15% and 15 (13–17) %.

For the compound `CN1CCC[C@H]1c1cccnc1` [nicotine, (-)-nicotine hydrogen tartrate], the ACh-evoked current amplitude in assay [1] is reported as −6.0 ± 6.2 nA. The “ACh responses in the presence of ligand” value in assay [2] turned out to be 99 ± 8%. The agonist-evoked currents result in [4] (concentrations up to 1 mM, oocytes incubated in STR (20 μM)) is recorded as “failed to evoke current responses; also recorded: failed to induce detectable currents”.

Consider `C[N+](C)(C)CCO` [choline], for which the “ACh-evoked current amplitude before exposure to STR” value in [5] is reported as −78 ± 44 nA. In addition, the Emax in assay [4] (read-out: maximal response, of the calculated maximal response to ACh) was 4 ± 2%.

On to `O=C1C[C@@H]2OCC=C3CN4CC[C@]56c7ccccc7N1[C@H]5[C@H]2[C@H]3C[C@H]46` [STR, strychnine], for which the “ACh-evoked currents after acute application, of control values” in [6] is reported as 1.0 ± 0.5%. The inhibition at 20 µM in assay [6] (setting [12]) was about 99%. In addition, the ACh-evoked current amplitude in assay [7] is on record as −1.6 ± 0.7 nA. For the same compound, the “ACh-evoked current amplitude after exposure to STR” value in assay [5] (subset of choline-incubated oocytes then incubated in STR (20 μM) for 24 h, ACh 100 μM) is −2.1 ± 1.2 nA. The ACh-evoked response amplitude in assay [8] (oocytes treated 36 h with STR (20 μM), calcium replaced with equimolar barium) is −301 ± 225 nA. The ACh-evoked response amplitude in [8] (oocytes treated 36 h with STR (20 μM), saline with calcium ([…])) is listed as −373 ± 273 nA. The “range of ACh-evoked current amplitudes” value in assay [1] (setting [11]) is given as −76 to −2,378 nA. In [2], the “ACh-evoked currents after acute application, of control values” was 52 ± 13%; half-maximal inhibition (IC50) was put at 20.2 µM; the “enhancement of ACh-evoked current amplitudes” value is recorded as 518 ± 411%; the “response to ACh after perfusion with ligand” value was −294 ± 149 nA. In [2] (setting [12]), the inhibition at 20 µM is about 50%. In addition, the “plateau to which ACh-evoked currents decay, of initial current amplitudes” value in assay [3] was 74% and 74 (72–76) %.

With `CC(=O)OCC[N+](C)(C)C` [ACh, acetylcholine], the “peak current amplitude in response to ACh” value in [9] (barium) is −31 ± 40 nA; in [9] (calcium), −484 ± 270 nA; in assay [10] (barium) it was −1,430 ± 1,424 nA; in assay [10] (calcium), −1,818 ± 1,329 nA. Besides, the “current at the end of the 15 s pulse of ACh” value in assay [9] (barium) is recorded as −23 ± 30 nA; in assay [9] (calcium), −154 ± 74 nA; in [10] (barium), −459 ± 375 nA; in assay [10] (calcium), −553 ± 396 nA. For the same compound, the “current at the end of the 15 s pulse of ACh, of peak amplitude” value stood at 73 ± 8% in assay [9] (barium), 33 ± 4% in assay [9] (calcium), 35 ± 11% in assay [10] (barium) and 31 ± 6% in assay [10] (calcium). In assay [1] (oocytes treated 3 days with 5 mM ligand, ACh 1 mM, ± SD), this compound displayed an ACh-evoked current amplitude of −17 ± 11 nA. The “Hill Slope of activation curve” value in assay [4] (oocytes incubated in STR (20 μM), 95% CI in parentheses) is on record as 1.1 (0.9–1.3).

As for `Cc1c2oc3c(C)ccc(C(=O)N[C@@H]4C(=O)N[C@H](C(C)C)C(=O)N5CCC[C@H]5C(=O)N(C)CC(=O)N(C)[C@@H](C(C)C)C(=O)O[C@@H]4C)c3nc-2c(C(=O)N[C@@H]2C(=O)N[C@H](C(C)C)C(=O)N3CCC[C@H]3C(=O)N(C)CC(=O)N(C)[C@@H](C(C)C)C(=O)O[C@@H]2C)c(N)c1=O` [Actino-D, actinomycin-D] (I: T[dV]P[Sar][NMeV] / II: T[dV]P[Sar][NMeV]; ester I:1-I:C, II:1-II:C; linker I:N-II:N via Actinocin(9to1)), the ACh-evoked response amplitude is on record as −164 ± 96 nA in assay [8] (sibling oocytes incubated with 1 µM actinomycin-D (and STR 20 μM), barium) and −186 ± 96 nA in [8] (sibling oocytes incubated with 1 µM actinomycin-D (and STR 20 μM), calcium ([…])).
